Calls of active or inactive are those of the source. The calls are words filed in the database; no cut-off is given here.
Experiments:
Cytochrome P450 1A2 = biological target: T1, Cytochrome P450 1A2 (Homo sapiens, UniProt P05177); assay: Inhibition of human microsomal CYP1A2 expressed in baculovirus infected BTI-TN-5B1-4 cells at 10 uM incubated for 30 mins by luciferase assay; assay type: ADME; settings: bti-tn-5b1-4, 0.5 h, 10 µM
T1 sequence (P05177 whole entry): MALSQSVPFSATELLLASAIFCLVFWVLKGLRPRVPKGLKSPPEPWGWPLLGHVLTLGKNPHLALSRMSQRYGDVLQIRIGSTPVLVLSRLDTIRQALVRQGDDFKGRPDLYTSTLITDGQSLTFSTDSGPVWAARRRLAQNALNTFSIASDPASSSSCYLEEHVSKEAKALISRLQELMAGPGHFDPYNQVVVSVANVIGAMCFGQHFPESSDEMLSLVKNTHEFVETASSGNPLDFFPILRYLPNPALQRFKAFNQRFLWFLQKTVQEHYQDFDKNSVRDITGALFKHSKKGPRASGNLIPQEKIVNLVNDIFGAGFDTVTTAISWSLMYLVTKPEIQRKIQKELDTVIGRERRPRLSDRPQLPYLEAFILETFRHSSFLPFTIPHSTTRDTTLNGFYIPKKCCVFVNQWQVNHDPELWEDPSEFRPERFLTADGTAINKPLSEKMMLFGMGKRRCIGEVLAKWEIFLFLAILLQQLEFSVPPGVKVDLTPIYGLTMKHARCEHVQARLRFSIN

in vitro = settings: human, THP-1 cells
Description: Selectivity index, ratio of CC50 for human THP1 cells to EC50 for Trypanosoma brucei brucei Lister 427 bloodstream forms

[1] = system: Trypanosoma brucei brucei; assay: Antitrypanosomal activity against Trypanosoma brucei brucei Lister 427 bloodstream forms at 10 uM after 72 hrs by resazurin-based assay; assay type: functional, organism-based
786-0 = assay: Mitochondrial toxicity in human 786-O cells incubated for 6 hrs by mitotracker red staining based-uptake method; assay type: cell-based; settings: 786-0, 6 h
WI-38 = assay: Cytotoxicity against human WI38 cells at 100 uM after 48 hrs by cell titer glo assay; assay type: cell-based; settings: wi-38, 48 h
A549 = assay: Cytotoxicity against human A549 cells at 100 uM after 48 hrs by cell titer glo assay; assay type: cell-based; settings: a549, 48 h
[2] = Cytotoxicity against human THP1 cells after 72 hrs by MTT assay; assay type: cell-based; settings: THP-1 cells, read-out: NOAEL
[3] = system: Trypanosoma brucei brucei; assay: Antitrypanosomal activity against Trypanosoma brucei brucei Lister 427 bloodstream forms assessed as synergy coefficient at 1.25 to 5 uM after 72 hrs in presence of MTX by resazurin-based assay; assay type: functional
[4] = biological target: Thymidylate synthase (Homo sapiens) (UniProt P04818); assay: Inhibition of human thymidylate synthase at 50 uM using folic aid as substrate by spectrophotometric analysis
[5] = system: Trypanosoma brucei brucei; assay: Antitrypanosomal activity against Trypanosoma brucei brucei Lister 427 bloodstream forms after 72 hrs by resazurin-based assay; assay type: functional, organism-based; settings: Lister 427, 72 h
[6] = system: Trypanosoma brucei brucei; assay: Antitrypanosomal activity against Trypanosoma brucei brucei Lister 427 bloodstream forms assessed as synergy coefficient at 2.5 to 5 uM after 72 hrs in presence of MTX by resazurin-based assay; assay type: functional
Trypanosoma brucei [7] = assay: Inhibition of Trypanosoma brucei PTR1 at 50 uM using H2B as substrate incubated for 10 mins followed by addition of NADPH measured for 10 to 50 mins
Trypanosoma brucei [8] = assay: Inhibition of Trypanosoma brucei DHFR at 50 uM using folic aid as substrate by spectrophotometric analysis
[9] = biological target: T2, Dihydrofolate reductase (Homo sapiens) (UniProt P00374); assay: Inhibition of human DHFR at 50 uM using folic aid as substrate by spectrophotometric analysis
T2 sequence (whole entry): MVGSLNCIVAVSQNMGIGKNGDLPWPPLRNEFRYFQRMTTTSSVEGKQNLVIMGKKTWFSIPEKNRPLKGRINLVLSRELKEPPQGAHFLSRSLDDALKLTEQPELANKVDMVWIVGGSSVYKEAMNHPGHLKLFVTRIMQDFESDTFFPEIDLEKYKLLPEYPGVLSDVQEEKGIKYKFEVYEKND

Leishmania mexicana [10] = assay: Inhibition of Leishmania mexicana DHFR at 50 uM using folic aid as substrate by spectrophotometric analysis
Trypanosoma brucei [11] = assay: (§1) Inhibition of Trypanosoma brucei PTR1 using H2B as substrate incubated for 10 mins followed by addition of NADPH measured for 10 to 50 mins
Leishmania mexicana [12] = assay: Inhibition of Leishmania mexicana PTR1 at 50 uM using H2B as substrate incubated for 10 mins followed by addition of NADPH measured for 10 to 50 mins
Leishmania infantum [13] = assay: Antiparasitic activity against Leishmania infantum MOM/MA67ITMAP263 amastigotes infected in human THP1 cells at 10 uM after 72 hrs by steady-glo luminescence assay; assay type: functional
[14] = biological target: Aurora kinase B (Homo sapiens) (UniProt Q96GD4); assay: Inhibition of recombinant full-length human aurora B kinase expressed in baculovirus system using MBP as substrate at 10 uM incubated for 45 mins by ADP-glo kinase assay
[15] = as §1
Leishmania infantum [16] = assay: Antiparasitic activity against Leishmania infantum MOM/MA67ITMAP263 amastigotes infected in human THP1 cell after 72 hrs by steady-glo luminescence assay; assay type: functional, organism-based; settings: MOM/MA67ITMAP263, THP-1, 72 h
Trypanosoma cruzi = assay: Antitrypanosomal activity against Trypanosoma cruzi Y trypomastigotes infected in human HG39 cells after 48 hrs by RT-PCR assay

Sequence of Thymidylate synthase (Homo sapiens) (P04818 2-313 limits assumed): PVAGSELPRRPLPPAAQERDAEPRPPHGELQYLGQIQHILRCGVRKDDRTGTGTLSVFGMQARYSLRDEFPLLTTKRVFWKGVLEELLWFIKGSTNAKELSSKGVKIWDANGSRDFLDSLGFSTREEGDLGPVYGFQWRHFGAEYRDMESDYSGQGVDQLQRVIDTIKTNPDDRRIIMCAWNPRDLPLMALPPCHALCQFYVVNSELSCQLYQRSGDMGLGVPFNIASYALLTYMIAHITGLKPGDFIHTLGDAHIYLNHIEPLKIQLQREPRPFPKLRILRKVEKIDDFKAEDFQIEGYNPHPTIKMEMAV
Sequence of Aurora kinase B (Homo sapiens) (Q96GD4 whole entry): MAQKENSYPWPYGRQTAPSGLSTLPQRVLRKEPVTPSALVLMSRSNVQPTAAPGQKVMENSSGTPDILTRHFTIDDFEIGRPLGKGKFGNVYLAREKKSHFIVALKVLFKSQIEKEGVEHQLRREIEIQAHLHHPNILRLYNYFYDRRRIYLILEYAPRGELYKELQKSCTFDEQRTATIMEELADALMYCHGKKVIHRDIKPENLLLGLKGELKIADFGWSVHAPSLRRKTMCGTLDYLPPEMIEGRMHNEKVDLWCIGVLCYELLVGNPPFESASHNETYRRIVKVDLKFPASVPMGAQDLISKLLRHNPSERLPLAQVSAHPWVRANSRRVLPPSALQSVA

| SMILES | inhibition (INH) (Cytochrome P450 1A2) | selectivity ratio (in vitro) | Activity [1] | Activity (786-0) | Activity (WI-38) | Activity (A549) | MNTC at 72 h [2] [µM] | inhibition (Trypanosoma brucei [7]) | also measured |
| --- | --- | --- | --- | --- | --- | --- | --- | --- | --- |
| COc1ccc(-c2oc3cc(OC)ccc3c(=O)c2O)cc1 | Not Active | 9 | Active | Non-Toxic | Non-Toxic | Non-Toxic | 10 |  |  |
| COc1cccc(-c2oc3cc(OC)ccc3c(=O)c2O)c1 | Not Active | 8 | Active | Non-Toxic | Non-Toxic | Non-Toxic | 10 |  |  |
| COc1ccc2oc(-c3ccc(OC)c(OC)c3)c(O)c(=O)c2c1 | Not Active | 5 | Active | Non-Toxic | Non-Toxic | Non-Toxic | 10 |  | CI [3]: >1 |
| O=c1c(O)c(-c2ccc(O)cc2)oc2cc(O)ccc12 [RESOKAEMPFEROL] | Not Active | 4 | Active | Non-Toxic | Non-Toxic | Non-Toxic | 20 | 33% | inhibition [4]: inactive; EC50 [5]: 4.29 µM; CI [6]: >1.5; inhibition (Trypanosoma brucei [8]): < 25%; inhibition [9]: < 30%; inhibition (Leishmania mexicana [10]): < 25%; CI [3]: >1.5 |
| C[C@@H]1O[C@@H](OC[C@H]2O[C@@H](Oc3c(-c4ccc(O)c(O)c4)oc4cc(O)cc(O)c4c3=O)[C@H](O)[C@@H](O)[C@@H]2O)[C@H](O)[C@H](O)[C@H]1O |  |  |  |  |  |  |  |  | IC50 [5]: < 30 µM; inhibition (Trypanosoma brucei [11]): inactive |
| O=c1c(O)c(-c2ccc(O)c(O)c2)oc2cc(O)cc(O)c12 |  |  |  |  |  |  |  |  | IC50 [5]: < 30 µM; inhibition (Trypanosoma brucei [11]): inactive |
| COc1cccc(-c2oc3ccc(OC)cc3c(=O)c2O)c1 | Not Active | 7 | Active | Non-Toxic | Non-Toxic | Non-Toxic | 10 | 4% | inhibition (Leishmania mexicana [12]): inactive; CI [3]: >1 |
| COc1ccc2c(=O)c(O)c(-c3cc(OC)c(OC)c(OC)c3)oc2c1 | Not Active | 17 |  | Non-Toxic | Non-Toxic | Non-Toxic | 20 | inactive | Activity (Leishmania infantum [13]): 35% |
| O=c1c(O)c(-c2ccc(O)c(O)c2)oc2cc(O)ccc12 [FISETIN] |  |  |  | Non-Toxic | Non-Toxic | Non-Toxic |  | 53% | inhibition [4]: inactive; inhibition (Trypanosoma brucei [8]): < 25%; inhibition [9]: < 30%; inhibition (Leishmania mexicana [10]): < 25%; inhibition [14]: Active |
| O=c1c(O)c(-c2ccc(O)cc2)oc2cc(O)cc(O)c12 [KAEMPFEROL] |  |  |  |  |  |  |  |  | IC50 [5]: 9 µM; IC50 [15]: 28 µM |
| CCCCCCCCCCCCCCCCOP(=O)([O-])OCC[N+](C)(C)C [MILTEFOSINE] |  |  |  |  |  |  |  |  | IC50 (Leishmania infantum [16]): 2.65 µM |
| CC1CS(=O)(=O)CCN1/N=C/c1ccc([N+](=O)[O-])o1 (configuration not stated) [NIFURTIMOX] |  |  |  |  |  |  |  |  | IC50 (Trypanosoma cruzi): 2.2 µM |

— ChEMBL document CHEMBL4431321, “Profiling of Flavonol Derivatives for the Development of Antitrypanosomatidic Drugs” (J Med Chem, 2016)
